What was measured:
[1] = target: T1, Heparanase (Homo sapiens, UniProt Q9Y251); assay: Inhibitory activity against heparanase from human platelets
T1 sequence (Q9Y251 whole entry): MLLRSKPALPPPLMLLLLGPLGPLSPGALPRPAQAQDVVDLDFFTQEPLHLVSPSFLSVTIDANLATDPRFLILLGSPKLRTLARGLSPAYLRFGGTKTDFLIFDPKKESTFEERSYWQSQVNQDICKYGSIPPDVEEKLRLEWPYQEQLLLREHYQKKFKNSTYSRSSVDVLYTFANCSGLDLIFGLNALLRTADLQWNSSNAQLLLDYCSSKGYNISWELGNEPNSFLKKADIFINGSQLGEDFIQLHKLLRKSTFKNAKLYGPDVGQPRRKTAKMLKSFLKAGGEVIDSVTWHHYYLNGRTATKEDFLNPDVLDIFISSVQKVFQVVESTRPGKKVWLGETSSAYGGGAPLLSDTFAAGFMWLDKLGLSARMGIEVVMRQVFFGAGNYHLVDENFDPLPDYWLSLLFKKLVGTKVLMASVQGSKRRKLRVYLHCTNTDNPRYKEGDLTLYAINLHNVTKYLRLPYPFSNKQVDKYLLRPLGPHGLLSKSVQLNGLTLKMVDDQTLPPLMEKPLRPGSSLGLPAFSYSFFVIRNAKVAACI

[2] = target: T2, Heparanase (Homo sapiens) (UniProt Q9Y251); assay: Inhibitory activity against heparanase from human platelets at 0.83 uM
T2 sequence (whole entry): T1 sequence (Q9Y251 whole entry)

[3] = target: T2, Heparanase (Homo sapiens); assay: Inhibitory activity against heparanase from human platelets at 25 uM
[4] = Plasma concentration in mice after 1 hr of administration of 30 mg/kg, po; assay type: ADME, organism-based; set-up: dose 30 mg/kg, route oral; conditions: mouse
[5] = Plasma concentration in mice after 4 hrs of administration of 30 mg/kg, po; assay type: ADME, organism-based; set-up: dose 30 mg/kg, route oral; conditions: mouse
[6] = Plasma concentration in mice after 1 hr of administration of 50 mg/kg, ip; assay type: ADME, organism-based; set-up: dose 50 mg/kg, route intraperitoneal; conditions: mouse
[7] = Plasma concentration in mice after 4 hrs of administration of 50 mg/kg, ip; assay type: ADME, organism-based; set-up: dose 50 mg/kg, route intraperitoneal; conditions: mouse

**Q.** Which IC50 [1] does the source give for `COc1ccc(CC(=O)Nc2ccc(-c3nc4ccccc4[nH]3)cc2)cc1Br` here?
**A.** The IC50 was > 15 µM.

**Q.** With `COc1ccc(C(=O)Nc2ccc(-c3nc4ccccc4[nH]3)cc2)cc1Cl` as the compound, how does the IC50 [1] read?
**A.** Its IC50 is > 15 µM.

**Q.** For `COc1ccc(C(=O)Nc2ccc(CNc3cccc(-c4nc5ccccc5[nH]4)c3)cc2)cc1Br`, which inhibition [2] is on record?
**A.** Its inhibition is < 10%.

**Q.** With `COc1ccc(C(=O)Nc2ccc(-c3nc4ccccc4[nH]3)cc2)cc1F` as the compound, how does the IC50 [1] read?
**A.** The IC50 was > 15 µM.

**Q.** Which inhibition [3] does the source give for `CCOc1ccc(C(=O)Nc2ccc(-c3nc4cc(OC)ccc4[nH]3)cc2)cc1Br` here?
**A.** Its inhibition is 73%.

**Q.** Which inhibition [3] does the source give for `CCOc1ccc(C(=O)Nc2ccc(-c3nc4cc(OC)c(OC)cc4[nH]3)cc2)cc1Br` here?
**A.** The inhibition was 35%.

**Q.** For `COc1ccc(C(=O)Nc2ccc(CNc3ccc(-c4nc5ccccc5[nH]4)cn3)cc2)cc1Br`, which concentration at 1 h [4] is on record?
**A.** Its concentration at 1 h is 3800 nM.

**Q.** What about the concentration at 4 h [5] of the same compound?
**A.** Its concentration at 4 h is 5500 nM.

**Q.** For `CCOc1ccc(C(=O)Nc2ccc(-c3nc4ccccc4[nH]3)cc2)cc1Br`, which concentration at 1 h [6] is on record?
**A.** The concentration at 1 h was 530 nM.

**Q.** And the concentration at 4 h [7]?
**A.** Its concentration at 4 h is 380 nM.

**Q.** For `COc1ccc(C(=O)Nc2ccc(-c3nc4ccccc4[nH]3)cc2)cc1Br`, which concentration at 1 h [6] is on record?
**A.** Its concentration at 1 h is 2240 nM.

**Q.** What about the concentration at 4 h [7] of the same compound?
**A.** The concentration at 4 h was 670 nM.

**Q.** With `COc1ccc(CNc2ccc(-c3nc4ccccc4[nH]3)cc2)cc1Br` as the compound, how does the IC50 [1] read?
**A.** The IC50 was > 15 µM.

**Q.** With `COc1ccc(C(=O)N(C)c2ccc(-c3nc4ccccc4[nH]3)cc2)cc1Br` as the compound, how does the IC50 [1] read?
**A.** The IC50 was > 15 µM.

**Q.** For `CCOc1ccc(C(=O)Nc2ccc(-c3nc4cc(C)c(Cl)cc4[nH]3)cc2)cc1Br`, which inhibition [3] is on record?
**A.** Its inhibition is 30%.

**Q.** With `CCOc1ccc(C(=O)Nc2ccc(-c3nc4cc(Cl)c(Cl)cc4[nH]3)cc2)cc1Br` as the compound, how does the inhibition [3] read?
**A.** The inhibition was 30%.

**Q.** For `COc1ccc(C(=O)Nc2ccc(CNc3ccc(Cc4nc5ccccc5[nH]4)cc3)cc2)cc1Br`, which inhibition [2] is on record?
**A.** The inhibition was < 10%.

**Q.** Which IC50 [1] does the source give for `COc1ccc(S(=O)(=O)Nc2ccc(-c3nc4ccccc4[nH]3)cc2)cc1Br` here?
**A.** Its IC50 is > 15 µM.

**Q.** Which IC50 [1] does the source give for `COc1ccc(NC(=O)c2ccc(-c3nc4ccccc4[nH]3)cc2)cc1Br` here?
**A.** Its IC50 is > 15 µM.

**Q.** Which inhibition [2] does the source give for `COc1ccc(C(=O)Nc2cccc(CNc3ccc(-c4nc5ccccc5[nH]4)cc3)c2)cc1Br` here?
**A.** Its inhibition is < 10%.

Reference: ChEMBL document CHEMBL1147775, “N-(4-{[4-(1H-Benzoimidazol-2-yl)-arylamino]-methyl}-phenyl)-benzamide derivatives as small molecule heparanase inhibitors” (Bioorg Med Chem Lett, 2006)
